Tests used:
[1] = Nude mouse PK study with adagrasib and DCC-3116 treatment; type: in vivo; details: for AUC(0-t) / Cmax: female, athymic nude, mouse, plasma, po; for AUC(0-t): read-out: adagrasib AUC0-2 h (average); for Cmax: read-out: adagrasib Cmax in plasma (average)
Procedure: The nude mouse PK study was performed at Attentive Science (Stilwell, KS), an AAALAC accredited facility. Food and water were provided ad libitum. […] Female athymic nude mice (n=3 per group) were dosed for 5 consecutive days. […] At 0, 0.5, and 2 h post final dose blood samples were collected from mice from each group. Blood samples were collected in K2EDTA tubes and processed into plasma, then stored at −20° C. Plasma samples were subjected to pharmacokinetic analysis using liquid chromatography coupled with tandem mass spectrometry analysis.

[2] = test system: ULK; assay: pATG13 ELISA in GIST-T1 cells, DCC-3116 with binimetinib and/or ripretinib; type: cell-based; details: GIST-T1 cell line, FIG. 10
Procedure: A substrate solution for HRP was added and the absorbance was measured using a plate reader. Data was plotted in GraphPad Prism and fit to a sigmoidal dose response curve to generate IC50 values.

[3] = MiaPaca-2 xenograft PK/PD model: sotorasib plasma PK with DCC-3116; type: in vivo, mouse; details: for AUC(0-t) / Cmax: female, Envigo Nude, mouse, plasma, po, 10 mg/kg
Procedure: The MiaPaca-2 xenograft model was performed in compliance with all the laws, regulations and guidelines of the National Institutes of Health (NIH) and with the approval of the Animal Care and Use Committee of Labcorp (Ann Arbor, MI), an AAALAC accredited facility. Food and water were provided ad libitum. […] Female Envigo Nude mice (6-7 weeks old) were inoculated subcutaneously just below the right high axilla with ten million cells in Dulbecco's Phosphate Buffered Saline with 50% Matrigel, using a 27-gauge needle and syringe. When tumor burdens reached 182 mm^3 on average on day 6, mice were randomly assigned into groups such that the mean tumor burden for all groups was within 10% of the overall mean tumor burden for the study population. […] At 2 h post final dose in the vehicle group, and 2, 6, and 10 h post final dose in the treatment groups, 3 mice from each group were sacrificed for tumor and plasma sampling. Blood samples were collected in K2EDTA tubes and processed into plasma, snap frozen in liquid nitrogen then stored at −80° C. Plasma samples were subjected to pharmacokinetic analysis using liquid chromatography coupled with tandem mass spectrometry analysis (Cayman Chemical, Ann Arbor, MI). Tumors were harvested and powdered over liquid nitrogen in covaris bags and stored at −80° C.

[4] = 25 mg/kg, adagrasib in combination with 25 mg/kg DCC-3116 (first statement)
[5] = 25 mg/kg, adagrasib in combination with 25 mg/kg DCC-3116 (second statement)
[6] = 100 mg/kg, adagrasib 100 mg/kg PO QD single agent, 5 days
[7] = 10 mg/kg sotorasib + 10 mg/kg DCC-3116
[8] = 10 mg/kg sotorasib + 25 mg/kg DCC-3116
[9] = 10 mg/kg sotorasib + 100 mg/kg DCC-3116
[10] = 10 mg/kg sotorasib as a single agent

## C=C(F)C(=O)N1CCN(c2nc(OC[C@@H]3CCCN3C)nc3c2CCN(c2cccc4cccc(Cl)c24)C3)C[C@@H]1CC#N [adagrasib, reference compound]
[1]; adagrasib alone versus with DCC-3116
  differences in adagrasib Cmax and AUC0-2 h amongst groups: not statistically significant
[1]; [4]
  AUC(0-t): 2970 ng·h/mL
  Cmax: 1880 ng/mL
[1]; [5]
  AUC(0-t): 3560 ng·h/mL
  Cmax: 2060 ng/mL
[1]; [6]
  AUC(0-t): 4230 ng·h/mL
  Cmax: 2530 ng/mL

## Cn1cnc2c(F)c(Nc3ccc(Br)cc3F)c(C(=O)NOCCO)cc21 [binimetinib]
[2]
  effect on ULK activity: induces ULK Activity

## C=CC(=O)N1CCN(c2nc(=O)n(-c3c(C)ccnc3C(C)C)c3nc(-c4c(O)cccc4F)c(F)cc23)[C@@H](C)C1 [sotorasib]
[3]; [7]
  AUC(0-t): 344 ng·h/mL
  Cmax: 76 ng/mL
[3]; [8]
  AUC(0-t): 727 ng·h/mL
  Cmax: 170 ng/mL
[3]; [9]
  AUC(0-t): 385 ng·h/mL
  Cmax: 74 ng/mL
[3]; [10]
  AUC(0-t): 963 ng·h/mL
  Cmax: 296 ng/mL
[3]; sotorasib alone versus with DCC-3116
  differences in sotorasib Cmax and AUC0-10 h amongst groups: not statistically significant

— patent US20240180923A1, “METHODS OF TREATING DISORDERS WITH ULK INHIBITORS” (Deciphera Pharmaceuticals, LLC, priority 2022, published 2024)
